The target of assay [1] is T1, recombinant thioesterase domain of fatty acid synthase (FAS TE) (Homo sapiens, UniProt P49327).
T1 construct: Expression of the recombinant thioesterase domain of FAS was performed as described previously
As to the kind of experiment: Fluorogenic assay (4-MUH substrate) for inhibition of recombinant FAS thioesterase domain. The format is biochemical. An excerpt:
The synthetic fluorogenic substrate, 4-methylumbelliferyl heptanoate (4-MUH), was purchased from Sigma (St. Louis, Mo.). […] Results are the average of triplicate time points.

The subject of assay [2] is cellular fatty acid synthesis in MDA-MB-435 cells. As to the kind of experiment: [14C]-acetate incorporation into cellular fatty acids, MDA-MB-435 cells. The settings on record: MDA-MB-435, 100 μM.
Protocol: Cells were seeded at density of 2.5×10^4 cells/well in 24-well plates. Prior to the addition of orlistat, the wells were washed twice with PBS. Serum-free RPMI containing 300 μg/ml BSA and insulin/transferrin/selenium supplement was added to the wells, with or without orlistat. The cells were incubated for two hours prior to the addition of 1 μCi of [^14C]-acetate to label newly synthesized fatty acids. After two hours, the labeling medium was removed and the cells were washed with PBS/EDTA and trypsinized The cells pellets were washed twice more with PBS and fatty acids were extracted by the addition of an equal mixture of chloroform-methanol for 30 minutes. The extracted material was dried under a stream of N2 gas and extracted further with water-saturated butanol. The butanol was removed by drying under a stream of N2 gas and labeled fatty acids were detected by scintillation counting.
MDA-MB-435 cells were fed [^14C]-acetate as a precursor, and treated with orlistat.
A further assay relates to HUVEC. As to the kind of experiment: HUVEC proliferation by BrdU incorporation. The format is cell-based, human. The settings on record: for IC50: Homo sapiens, HUVEC, read-out: concentration required for a half maximal effect on proliferation. The method, then:
The effect of orlistat on HUVEC proliferation induced by several mitogenic stimuli was assessed by BrdU incorporation. Orlistat and mitogen were added simultaneously to serum-starved cells, and BrdU included during the period equivalent to the second round of the cell cycle after mitogen addition. Orlistat inhibited proliferation induced by complete endothelial medium (containing a undefined mixture of mitogens), by bFGF and by VEGF. […] Cell proliferation was measured by incorporation of BrdU. HUVEC were seeded in 96 well plates at a density of 2000 cells/well and cultured in Endothelial Growth medium (EGM; Clonetics, Walkerville, Md.) for 24 h at 37° C. Cells were serum-starved for further 24 h in Endothelial Basal Medium (EBM; Clonetics, Walkerville, Md.)+0.2% FCS. Medium was replaced with orlistat (40-0 uM) diluted in (A) EGM, (B) EBM+2% FCS+bFGF (5 ng/ml), (C) EBM+2% FCS+VEGF (20 ng/ml) or (D) EBM+0.2% FCS. Cells were incubated 48 h at 37 deg C., with BrdU present during the final 24 h. Medium was removed, the cell monolayers fixed, and BrdU incorporation measured by ELISA. Proliferation was expressed as a percentage of that measured in the absence of orlistat.
(Dividing cells build labelled thymidine or BrdU into new DNA.)

Another assay deals with MDA-MB-435 cells. Kind of assay: Apoptosis by DNA fragmentation ELISA. The conditions noted are these: Homo sapiens, MDA-MB-435, read-out: half-maximal apoptotic response.
The test system of assay [3] is cellular fatty acid synthesis. As to the kind of experiment: [14C]-acetate incorporation into fatty acids, prostate tumor cells. The format is cell-based. The conditions noted are these: level of orlistat inhibiting about 90% of activity-based labeling of FAS. The method, then:
Studies were performed to determine the effect of orlistat on tumor cells. As a first step, we measured the ability to inhibit the activity of FAS in whole cells. […] . A concentration-dependent inhibition of labeling by FP-Bodipy was evident (FIG. 2; top panel), indicating enzyme inhibition. […] .
Inhibition of fatty acid synthesis by orlistat.

A further assay concerns normal HMECs. As to the kind of experiment: Apoptosis by DNA fragmentation ELISA. A general note: ELISA stands for enzyme-linked immunosorbent assay.
Assay [4] has as its system hydrolase migrating at 31 kDa. As to the kind of experiment: FP-TAMRA labeling of serine hydrolases in mammary cell lysates. The assay is classed as biochemical, human. The method, then: (§1) The serine hydrolase activity profiles of the prostate cell lines were measured using the fluorophosphonate probe fp-PEG-TAMRA using methods described previously (Liu et al., supra; Kidd et al., supra). Briefly, 40 μl of a 1 mg/ml solution of the soluble fractions of each cell lines were treated with 2 μM fp-PEG-TAMRA for one hour at ambient temperature. The labeling reactions were stopped by the addition of Laemmli buffer followed by boiling for 5 minutes. As a control for non-specific reaction of the probe, a duplicate sample was boiled for ten minutes prior to labeling with fp-PEG-TAMRA to denature all enzymatic activity. The labeled samples were resolved by 10% SDS-PAGE and visualized by scanning with a Hitachi flatbed scanner at 605 nm.
(§2) Ebelactone A and B stocks were made in DMSO. Orlistat was made in EtOH. Cell lysate were generated at 1 mg/ml as described above. Samples (40 μg) were incubated with inhibitors for twenty minutes prior to addition of fp-PEG-TAMRA. The final concentration of DMSO or EtOH in each reaction was 10%. The labeling reactions were stopped by the addition of Laemmli sample buffer and samples were resolved on 10% SDS-PAGE and visualized.
(§3) Labeling of serine hydrolases in the cell lysates with FP-TAMRA was challenged with each of the beta-lactones Inhibition experiments were performed under pre-steady state conditions, so that relative IC50 values could be compared. […] Tetrahydrolipstatin is selective for the hydrolase at 270 kDa that is expressed in breast cancer cell lines.

Assay [5] concerns hydrolase expressed at 28 kDa. Described as above. The assay is classed as biochemical, human. The method, then:
as §1, §2, §3

[6] abbreviates: recombinant FAS TE, 4-MUH substrate, 30 min pre-incubation at 37 deg.C, read-out: apparent Ki.

Each structure is given as a SMILES string. Where two headings read alike, the source gives them in different places.

T1 sequence (P49327 2207-2511 limits assumed): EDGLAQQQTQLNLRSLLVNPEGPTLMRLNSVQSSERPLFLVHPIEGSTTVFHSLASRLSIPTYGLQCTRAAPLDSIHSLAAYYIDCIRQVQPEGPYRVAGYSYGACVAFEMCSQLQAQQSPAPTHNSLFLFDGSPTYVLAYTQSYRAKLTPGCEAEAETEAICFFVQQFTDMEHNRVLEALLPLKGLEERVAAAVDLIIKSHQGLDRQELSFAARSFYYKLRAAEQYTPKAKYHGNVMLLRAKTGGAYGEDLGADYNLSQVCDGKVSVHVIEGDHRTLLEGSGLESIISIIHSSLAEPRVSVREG

As to `CCCCC[C@@H]1OC(=O)[C@@]1(CCCC)Cc1ccccc1` [8b, (3S,4S)-3-benzyl-3-butyl-4-pentyloxetan-2-one], the Ki in assay [1] (setting [6]) was 19.2 ± 0.36 µM. In the case of `CCCCCCCCCCC[C@@H](C[C@@H]1OC(=O)[C@H]1CCCCCC)OC(=O)[C@H](CC(C)C)NC=O` [Orlistat, tetrahydrolipstatin], in assay [2], the “reduction of incorporation of [14C]-acetate into cellular fatty acids” value was “approximately 70%”. Besides, the IC50 in the assay with HUVEC (VEGF) came to 1.25 µM; in the assay with HUVEC (bFGF), 1 µM; with HUVEC (complete medium), 4 µM. In addition, in the assay with HUVEC (complete medium, bFGF or VEGF), the “concentration at which maximum inhibition of proliferation was achieved” value is not below 10 µM. The “maximum inhibition of proliferation” value was approximately 80% with HUVEC (stimulated with VEGF), approximately 90% with HUVEC (stimulated with bFGF) and approximately 90% with HUVEC (stimulated with complete medium). Further, the EC50 in the assay with MDA-MB-435 cells is approximately 4 µM. Besides, the “reduction of total cellular fatty acid synthesis” value in assay [3] is listed as “approximately 70%”. For the same molecule, in the assay on normal HMECs, the “apoptotic response across a range of orlistat” value was “No effect”.

In the case of `CCCCC[C@H]1OC(=O)[C@@H]1CCCC` [trans-3a, (3R,4R)-3-butyl-4-pentyloxetan-2-one], the Ki in assay [1] (setting [6]) was determined as 4.01 ± 1.9 µM. `COC(=O)CC[C@H]1OC(=O)[C@H]1CC(=O)OC` [3e]: in assay [1] (setting [6]), the Ki was more than 100 µM. The same measure, in the same setting: in the case of `O=C1O[C@H](CCC2CCCC2)[C@@H]1CC1CCCC1` [3b] it was 13.5 ± 7.8 µM; in that of `O=C1O[C@H](CCC2CCCCC2)[C@@H]1CC1CCCCC1` [3c], 7.7 ± 0.43 µM; in that of `CCCCC[C@@H]1OC(=O)[C@]1(C)CCCC` [8a, (3R,4S)-3-butyl-3-methyl-4-pentyloxetan-2-one], 14.6 ± 4 µM.

As for `O=C1O/C(=C\Cc2ccccc2)[C@@H]1Cc1ccccc1` [2d], the Ki in assay [1] (setting [6]) is 5.04 ± 2.1 µM. Consider `O=C1O[C@H](CCc2ccccc2)[C@H]1Cc1ccccc1` [trans-3d], for which the Ki in assay [1] is 3.3 ± 0.2 µM.

For the molecule `CC[C@H](C)[C@@H](O)[C@H](C)C(=O)[C@H](C)/C=C(\C)C[C@H](C)C1OC(=O)[C@H]1C` (some centres unmarked) [ebelactone A], the “inhibition of labeling of 31 kDa hydrolase” value in assay [4] is on record as “far less effective”. Besides, in assay [5], the “inhibition of labeling of 28 kDa hydrolase” value is listed as “potent inhibitor”. `O=C1O[C@H](CCc2ccccc2)[C@@H]1Cc1ccccc1` [3d]: in assay [1] (setting [6]), the Ki is 2.5 ± 0.47 µM. On to `O=C1O/C(=C\CC2CCCCC2)[C@@H]1CC1CCCCC1` [2c], for which, in assay [1] (setting [6]), the Ki was more than 100 µM.

In the case of `CCCCC[C@@H]1OC(=O)[C@@H]1CCCC` (stereo in doubt) [3a, (3R,4S)-3-butyl-4-pentyloxetan-2-one], the Ki in assay [1] (setting [6]) came out at 23.1 ± 4.2 µM. As for `CC[C@@H]1C(=O)OC1[C@@H](C)C/C(C)=C/[C@@H](C)C(=O)[C@@H](C)[C@H](O)[C@@H](C)CC` (some centres unmarked) [ebelactone B], the “inhibition of labeling of 31 kDa hydrolase” value in assay [4] is given as “abolished labeling”. Also, the “inhibition of labeling of 28 kDa hydrolase” value in assay [5] is given as “little effect”.

For the origin of these results see patent publication US8124794B2, “Method for the asymmetric synthesis of beta-lactone compounds” (Sanford-Burnham Medical Research Institute, priority 2006, dated 2012).
